Residue numbers refer to the chain shown, from its start.
Columns and labels:
TTLL6 (51-502) [1] = target: T1, TTLL6 (51-502) (Mus musculus, UniProt A4Q9E8); assay: [3H]-glutamate transfer to taxol-stabilized brain microtubules, filter assay; assay type: biochemical
T1 sequence (A4Q9E8 51-502): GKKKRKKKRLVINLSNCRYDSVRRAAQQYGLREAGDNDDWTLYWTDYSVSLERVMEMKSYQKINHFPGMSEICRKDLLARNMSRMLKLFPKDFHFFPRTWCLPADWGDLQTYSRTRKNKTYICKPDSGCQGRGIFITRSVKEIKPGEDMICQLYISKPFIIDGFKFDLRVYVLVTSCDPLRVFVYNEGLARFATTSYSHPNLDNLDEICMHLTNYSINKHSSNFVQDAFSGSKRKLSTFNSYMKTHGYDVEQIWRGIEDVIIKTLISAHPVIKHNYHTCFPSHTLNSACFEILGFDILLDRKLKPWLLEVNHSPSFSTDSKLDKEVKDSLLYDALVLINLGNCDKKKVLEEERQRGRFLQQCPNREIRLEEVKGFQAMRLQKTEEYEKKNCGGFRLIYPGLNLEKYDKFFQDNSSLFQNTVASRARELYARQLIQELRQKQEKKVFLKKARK

TTLL6 (51-502) [2] = target: T2, TTLL6 (51-502) (Mus musculus, UniProt A4Q9E8, C179A/H362I/Q180R); assay: as above; assay type: biochemical
T2 sequence (A4Q9E8 51-502 C179A/Q180R/H362I): T1 sequence (A4Q9E8 51-502) with C129A, Q130R, H312I

IC50 (TTLL6 (51-502) [1]) | IC50 (TTLL6 (51-502) [2]) | Compound
6.1 µM | 3.5 ± 0.2 µM | CCNC(=O)[C@H](CCP(=O)(O)CC(CCC(=O)O)C(=O)O)NC(C)=O (mixture of isomers) [initiation analog]
0.6 ± 0.05 µM | 5.4 ± 0.8 µM | CC(=O)NC(CCC(=O)O)P(=O)(O)CC(CCC(=O)O)C(=O)O (mixture of isomers) [α-elongation analog]
~6 µM | 2.5 ± 0.1 µM | CC(=O)N[C@@H](CCP(=O)(O)CC(CCC(=O)O)C(=O)O)C(=O)O (mixture of isomers) [γ-elongation analog]

From doi:10.1101/2020.06.07.139295v2 (biorxiv, 2020)
